Calls of active or inactive are those of the source. No cut-off for these calls is given here.
Key:
MCF7 [1] = test: Growth inhibition of human MCF7 cells incubated for 72 hrs by SRB assay; format: functional
T47D [2] = test: Antiproliferative activity against human T47D cells assessed as cell growth at 10 uM incubated for 72 hrs by SRB assay relative to control; format: functional; settings: read-out: Activity
Aurora kinase B [3] = biological target: T1, Aurora kinase B (Homo sapiens, UniProt Q96GD4); test: Inhibition of Aurora B (unknown origin) at 100 nM by Z-LYTE assay relative to control
T1 sequence (Q96GD4 whole entry): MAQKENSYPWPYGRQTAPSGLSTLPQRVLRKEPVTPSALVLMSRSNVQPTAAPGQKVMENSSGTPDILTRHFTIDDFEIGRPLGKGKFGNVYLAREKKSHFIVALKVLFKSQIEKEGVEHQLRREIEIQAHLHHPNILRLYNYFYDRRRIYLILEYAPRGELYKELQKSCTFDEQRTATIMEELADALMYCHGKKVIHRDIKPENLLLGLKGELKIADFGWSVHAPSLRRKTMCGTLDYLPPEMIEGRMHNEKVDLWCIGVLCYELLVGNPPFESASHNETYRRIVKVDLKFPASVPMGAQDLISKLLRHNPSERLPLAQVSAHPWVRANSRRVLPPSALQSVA

T47D [4] = test: Growth inhibition of human T47D cells incubated for 72 hrs by SRB assay; format: functional
MDA-MB-468 [5] = test: Antiproliferative activity against human MDA-MB-468 cells assessed as cell growth at 10 uM incubated for 72 hrs by SRB assay relative to control; format: functional; settings: read-out: Activity
MDA-MB-468 [6] = test: Growth inhibition of human MDA-MB-468 cells incubated for 72 hrs by SRB assay; format: functional
MCF7 [7] = test: Antiproliferative activity against human MCF7 cells assessed as cell growth at 10 uM incubated for 72 hrs by SRB assay relative to control; format: functional; settings: read-out: Activity
H9c2 = test: Cytotoxicity against rat H9c2 cells at upto 100 uM measured after 72 hrs by SRB assay; format: toxicity, cell-based; settings: h9c2, 72 h
MCF7 [8] = test: Inhibition of mitochondrial induced ROS production in human MCF7 cells assessed as reduction in H2O2 production rate at 20 uM incubated for 15 mins in presence of complex II by Amplex ultra red and horseradish peroxidase based fluorescence assay; format: functional, cell-based
MCF7 [9] = test: Inhibition of mitochondrial respiration in human MCF7 cells assessed as reduction in oxygen consumption rate at 20 uM incubated for 15 mins in presence of complex IV; format: functional, cell-based
BNL = test: Cytotoxicity against mouse BNL cells at upto 100 uM measured after 72 hrs by SRB assay; format: toxicity, cell-based
MCF7 [10] = test: Induction of cell cycle arrest in human MCF7 cells assessed as accumulation of cells at G0/G1 phase at 5 to 7 uM measured after 24 hrs by PI staining based flow cytometry analysis; format: functional; settings: dose 5-7 µM
MCF7 [11] = test: Inhibition of mitochondrial respiration in human MCF7 cells assessed as reduction in oxygen consumption rate at 20 uM incubated for 15 mins; format: functional, cell-based
MCF7 [12] = test: Inhibition of mitochondrial respiration in human MCF7 cells assessed as reduction in oxygen consumption rate at 20 uM incubated for 15 mins in presence of complex I; format: functional, cell-based
MCF7 [13] = test: Inhibition of mitochondrial respiration in human MCF7 cells assessed as reduction in oxygen consumption rate at 20 uM incubated for 15 mins in presence of complex II; format: functional, cell-based
Aurora kinase B [14] = biological target: T1, Aurora kinase B; test: Inhibition of Aurora B (unknown origin) at 100 nM relative to control
Aurora kinase B [15] = biological target: T1, Aurora kinase B; test: Inhibition of Aurora B (unknown origin)
Aurora kinase B [16] = biological target: T1, Aurora kinase B; test: Binding affinity to Aurora B (unknown origin) assessed as inhibition constant

| GI50 (MCF7 [1]) [nM] | inhibition (Aurora kinase B [3]) [%] | GI50 (T47D [4]) [nM] | GI50 (MDA-MB-468 [6]) [nM] | SMILES | growth at 10 µM (T47D [2]) [%] | growth at 10 µM (MDA-MB-468 [5]) [%] | growth at 10 µM (MCF7 [7]) [%] | also measured |
| --- | --- | --- | --- | --- | --- | --- | --- | --- |
| 47.7 | 33 | 28.5 | 30.9 | COc1ccc(S(=O)(=O)Nc2ccc(-c3ccc4c(c3)NC(=O)/C4=C\c3ccc[nH]3)cc2)cc1OC | -21 | -56.2 | -39 | – |
| – | 23 | – | – | Cc1ccc(S(=O)(=O)Nc2ccc(-c3ccc4c(c3)NC(=O)/C4=C\c3ccc[nH]3)cc2)cc1 | 18.8 | -25.8 | 3.35 | – |
| 31.6 | 32 | 61.3 | 25.4 | O=C1Nc2cc(-c3ccc(NS(=O)(=O)c4ccc(Br)cc4)cc3)ccc2/C1=C/c1ccc[nH]1 | 9.33 | -66.9 | -77.4 | – |
| – | 53 | – | – | Cc1[nH]c(/C=C2\C(=O)Nc3cc(-c4ccc(NS(=O)(=O)c5ccc(F)c(Cl)c5)cc4)ccc32)c(C)c1NS(C)(=O)=O | 17.9 | 8.19 | 4.18 | – |
| – | 90 | – | – | CCN(CC)CCNC(=O)c1c(C)[nH]c(/C=C2\C(=O)Nc3cc(-c4ccc(NS(=O)(=O)c5ccc(F)c(Cl)c5)cc4)ccc32)c1C | -49.1 | -90.5 | -85.2 | Activity (H9c2): Non-Toxic; inhibition (MCF7 [8]): Active; inhibition (MCF7 [9]): inactive; Activity (BNL): Non-Toxic; Activity (MCF7 [10]): Active; inhibition (MCF7 [11]): Active; inhibition (MCF7 [12]): Active; inhibition (MCF7 [13]): Active |
| – | – | – | – | O=C1Nc2cc(-c3ccc(NS(=O)(=O)c4ccccc4)cc3)ccc2/C1=C/c1ccc[nH]1 | – | – | – | inhibition (Aurora kinase B [14]): 66% |
| – | 43 | – | – | O=C1Nc2cc(-c3ccc(NS(=O)(=O)c4cccc(Cl)c4)cc3)ccc2/C1=C/c1ccc[nH]1 | 12.1 | -29.3 | -6.08 | – |
| – | – | – | – | O=C(Nc1ccc(-c2ccc3c(c2)NC(=O)/C3=C\c2ccc[nH]2)cc1)NC1CC1 | – | – | – | IC50 (Aurora kinase B [15]): 10.5 nM |
| 30.2 | 38 | 41.7 | 28.6 | O=C1Nc2cc(-c3ccc(NS(=O)(=O)c4cccc(Br)c4)cc3)ccc2/C1=C/c1ccc[nH]1 | 15.6 | -44 | -18.4 | – |
| 74.6 | 20 | 136 | 40.2 | O=C1Nc2cc(-c3ccc(NS(=O)(=O)c4ccc(-c5ccccc5)cc4)cc3)ccc2/C1=C/c1ccc[nH]1 | 3.17 | -52.5 | -25.2 | – |
| – | 46 | – | – | CC(=O)Nc1ccc(S(=O)(=O)Nc2ccc(-c3ccc4c(c3)NC(=O)/C4=C\c3ccc[nH]3)cc2)cc1 | 20.7 | -7.1 | 14.3 | – |
| 1730 | 49 | 4770 | 778 | O=C1Nc2cc(-c3ccc(NS(=O)(=O)c4ccc([N+](=O)[O-])cc4)cc3)ccc2/C1=C/c1ccc[nH]1 | 15.9 | -29.6 | -23.6 | – |
| 81.8 | 18 | 230 | 31.1 | O=C1Nc2cc(-c3ccc(NS(=O)(=O)c4ccc(C(F)(F)F)cc4)cc3)ccc2/C1=C/c1ccc[nH]1 | 18.1 | -26.2 | 0.78 | – |
| – | – | – | – | O=C1Nc2cc(-c3ccc(O)cc3)ccc2/C1=C/c1ccc[nH]1 | – | – | – | Ki (Aurora kinase B [16]): 19.9 nM |
| 33.6 | 20 | 47.1 | 25.4 | O=C1Nc2cc(-c3ccc(NS(=O)(=O)c4ccc5ccccc5c4)cc3)ccc2/C1=C/c1ccc[nH]1 | -16.7 | -80.8 | -51.9 | – |

From ChEMBL document CHEMBL5505991, “Novel sulfonamide-indolinone hybrids targeting mitochondrial respiration of breast cancer cells” (Eur J Med Chem, 2024)
